Data taken from patent publication US20250304644A1, “PEPTIDES TRIPLE AGONISTS OF GIP, GLP-1 AND GLP-2” (BAINAN BIOTECH APS, priority 2021, published 2025).
Values joined by “and” are separate entries in the source; they are usually repeats but may differ in a detail not shown here. Equal entries are not always repeated. Where two headings read alike, the source gives them in different places. *1 amine or outer side, *2 acyl side, *3 side chain or, on linkers, in order; H or OH if unused. Where a SMILES comes first, the peptide text is derived from it. Side-chain parts run from the residue outwards. [ ]: non-standard residue; d: D form. The star is where a group is joined. C18 diacid = O=C(O)CCCCCCCCCCCCCCCCC(=O)*; γGlu = O=C(O)[C@H](CCC(=O)[*:2])N[*:1]; AEEA = NCCOCCOCC(=O)O; Aib = CC(C)(N)C(=O)O

Assays:
Assay type in all cases: cell-based
[1] = biological target: T1, human GIPR (Homo sapiens, UniProt P48546); assay: cAMP assay (HitHunter) in transiently transfected COS-7 cells expressing human GIPR
T1 construct: host or cells: COS-7
T1 sequence (P48546 22-466): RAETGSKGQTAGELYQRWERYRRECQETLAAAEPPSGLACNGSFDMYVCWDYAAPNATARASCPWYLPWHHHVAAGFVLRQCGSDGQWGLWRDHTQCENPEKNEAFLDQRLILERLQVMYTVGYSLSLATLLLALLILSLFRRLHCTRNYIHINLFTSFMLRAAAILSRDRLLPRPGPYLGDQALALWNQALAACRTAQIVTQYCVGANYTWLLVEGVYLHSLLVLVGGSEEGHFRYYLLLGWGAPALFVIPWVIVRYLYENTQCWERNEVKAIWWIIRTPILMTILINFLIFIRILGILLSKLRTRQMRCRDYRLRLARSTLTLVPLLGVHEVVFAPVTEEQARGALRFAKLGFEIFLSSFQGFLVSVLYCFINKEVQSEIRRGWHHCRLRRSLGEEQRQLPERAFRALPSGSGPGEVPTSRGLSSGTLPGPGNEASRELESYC

[2] = biological target: T2, human GLP-2R (Homo sapiens, UniProt O95838); assay: cAMP assay (HitHunter) in transiently transfected COS-7 cells expressing human GLP-2R
T2 construct: host or cells: COS-7
T2 sequence (O95838 1-553): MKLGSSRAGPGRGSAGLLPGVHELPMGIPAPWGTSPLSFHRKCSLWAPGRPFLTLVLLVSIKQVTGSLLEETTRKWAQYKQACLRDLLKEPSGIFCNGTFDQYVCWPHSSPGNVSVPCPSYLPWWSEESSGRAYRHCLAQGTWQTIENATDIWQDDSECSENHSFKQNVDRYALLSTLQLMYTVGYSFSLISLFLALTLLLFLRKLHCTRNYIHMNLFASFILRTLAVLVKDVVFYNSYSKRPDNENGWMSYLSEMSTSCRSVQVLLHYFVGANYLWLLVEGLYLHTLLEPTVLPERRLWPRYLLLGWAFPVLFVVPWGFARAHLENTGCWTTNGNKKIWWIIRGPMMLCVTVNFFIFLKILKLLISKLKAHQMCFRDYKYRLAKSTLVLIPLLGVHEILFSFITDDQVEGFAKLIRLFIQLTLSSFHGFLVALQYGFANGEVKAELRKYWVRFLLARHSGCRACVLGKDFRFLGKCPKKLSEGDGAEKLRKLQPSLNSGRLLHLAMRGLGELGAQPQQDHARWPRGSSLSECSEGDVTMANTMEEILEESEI

[3] = biological target: T3, human GLP-1R (Homo sapiens, UniProt P43220); assay: cAMP assay (HitHunter) in transiently transfected COS-7 cells expressing human GLP-1R
T3 construct: host or cells: COS-7
T3 sequence (P43220 24-463): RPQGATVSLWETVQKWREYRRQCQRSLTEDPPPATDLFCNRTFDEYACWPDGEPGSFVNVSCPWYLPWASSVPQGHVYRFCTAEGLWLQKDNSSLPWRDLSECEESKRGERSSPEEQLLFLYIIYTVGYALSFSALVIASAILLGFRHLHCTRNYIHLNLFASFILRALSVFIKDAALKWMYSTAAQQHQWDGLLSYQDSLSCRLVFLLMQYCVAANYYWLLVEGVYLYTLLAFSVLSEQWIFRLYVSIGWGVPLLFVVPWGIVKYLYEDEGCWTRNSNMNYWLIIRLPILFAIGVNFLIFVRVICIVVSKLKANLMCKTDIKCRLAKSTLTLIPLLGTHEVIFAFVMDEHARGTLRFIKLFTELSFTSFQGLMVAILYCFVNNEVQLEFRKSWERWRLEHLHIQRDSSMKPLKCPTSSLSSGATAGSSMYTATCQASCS

[4] = biological target: human glucagon receptor (GCGR) (Homo sapiens, UniProt P47871); assay: Gs activation measured as cAMP accumulation on human glucagon receptor (FIG. 1 radar plot); details: read-out: −p Log EC50 on human glucagon receptor (GCGR) (converted)
Chain of human glucagon receptor (GCGR) (P47871 26-477): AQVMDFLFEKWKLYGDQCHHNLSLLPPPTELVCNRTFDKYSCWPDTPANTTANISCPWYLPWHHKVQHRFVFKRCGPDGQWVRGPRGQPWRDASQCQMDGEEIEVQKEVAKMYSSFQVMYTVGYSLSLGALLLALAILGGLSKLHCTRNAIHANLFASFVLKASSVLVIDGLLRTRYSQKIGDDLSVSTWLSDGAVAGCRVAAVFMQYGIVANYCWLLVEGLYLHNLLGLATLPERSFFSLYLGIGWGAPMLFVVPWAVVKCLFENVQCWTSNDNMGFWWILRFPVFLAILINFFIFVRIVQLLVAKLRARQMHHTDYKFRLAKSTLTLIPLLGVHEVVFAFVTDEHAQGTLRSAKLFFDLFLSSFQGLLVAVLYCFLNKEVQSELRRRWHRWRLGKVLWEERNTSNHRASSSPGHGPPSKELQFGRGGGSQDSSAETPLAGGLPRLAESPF
Description: Here, the compounds 20, 21, 22, 28, 30, 31,32, 33, 34, 35 are shown in terms of their potencies in Gs activation, measured as CAMP accumulation, depicted in a radar plot. The numbers refer to −p Log EC50 values. […] The outer rings correspond to higher potencies, the inner rings correspond to lower potencies.

[5] = biological target: T4, human SNAP-tagged GIPR (Homo sapiens, UniProt P48546); assay: Receptor internalization assay, HEK293A cells expressing human SNAP-tagged GIPR
T4 construct: host or cells: HEK293A
T4 sequence (P48546 22-466): T1 sequence (P48546 22-466)

[6] = biological target: T5, human SNAP-tagged GLP-1R (Homo sapiens, UniProt P43220); assay: Receptor internalization assay, HEK293A cells expressing human SNAP-tagged GLP-1R; details: for Absolute hGLP-1R internalization (AUC): AUC of sigmoid curves up to 1 μM, 60 minutes at 37° C.; for Relative hGLP-1R internalization (%): relative to hGLP-1 = 100
T5 construct: expressed in transfected cells; host or cells: HEK293A
T5 sequence (P43220 24-463): as the sequence (P43220 24-463) above

[7] = biological target: T6, human SNP-tagged GLP-2R (Homo sapiens, UniProt O95838); assay: Receptor internalization assay, HEK293A cells expressing human SNAP-tagged GLP-2R; details: for Absolute hGLP-2R internalization (AUC): AUC of sigmoid curves up to 1 μM, 60 minutes at 37° C.; for Relative hGLP-2R internalization (%): relative to native ligand = 100
T6 construct: expressed in transfected cells; host or cells: HEK293A
T6 sequence (O95838 1-553): T2 sequence (O95838 1-553)

Emax ([1]; COS-7, normalized to highest concentration of the endogenous ligand, read-out: Efficacy GIPR (Emax)) [%]	Emax ([2]; COS-7, normalized to highest concentration of the endogenous ligand, read-out: Efficacy GLP-2R (Emax)) [%]	EC50 ([2]; cAMP, COS-7 cells, human GLP-2R, read-out: EC50 (nM) GLP-2R) [nM]	Emax ([3]; COS-7, normalized to highest concentration of the endogenous ligand, read-out: Efficacy GLP-1R (Emax)) [%]	EC50 ([3]; cAMP, COS-7 cells, human GLP-1R, read-out: EC50 (nM) GLP-1R) [nM]	Absolute hGIPR internalization (AUC) ([5]; AUC of sigmoid curves up to 1 μM, 60 minutes at 37° C.)	Relative hGIPR internalization (%) ([5]; relative to hGIP 1-42 = 100)	SMILES	EC50 [4] [nM]	Absolute hGLP-1R internalization (AUC) [6]	Relative hGLP-1R internalization (%) [6] [%]	Absolute hGLP-2R internalization (AUC) [7]	Relative hGLP-2R internalization (%) [7] [%]	Emax ([1]; COS-7, read-out: Efficacy GIPR (Emax)) [%]	Emax ([2]; COS-7, read-out: Efficacy GLP-2R (Emax)) [%]	Emax ([3]; COS-7, read-out: Efficacy GLP-1R (Emax)) [%]	Absolute hGIPR internalization (AUC) [5]	Relative hGIPR internalization (%) [5] [%]
119	89	2.2	102	3.98	21.7	58% and 59%	CC[C@H](C)[C@H](NC(=O)[C@H](Cc1ccccc1)NC(=O)[C@H](CC(=O)O)NC(=O)[C@H](CCCNC(=N)N)NC(=O)[C@H](C)NC(=O)[C@H](C)NC(=O)[C@H](CC(C)C)NC(=O)[C@H](C)NC(=O)[C@H](CC(=O)O)NC(=O)[C@H](CC(C)C)NC(=O)[C@@H](NC(=O)[C@@H](NC(=O)[C@H](CO)NC(=O)[C@H](Cc1ccc(O)cc1)NC(=O)[C@H](CC(=O)O)NC(=O)[C@H](CO)NC(=O)[C@@H](NC(=O)[C@H](Cc1ccccc1)NC(=O)[C@@H](NC(=O)CNC(=O)[C@H](CC(=O)O)NC(=O)C(C)(C)NC(=O)[C@@H](N)Cc1c[nH]cn1)[C@@H](C)O)[C@@H](C)CC)[C@@H](C)O)[C@@H](C)CC)C(=O)N[C@@H](CC(N)=O)C(=O)N[C@@H](Cc1c[nH]c2ccccc12)C(=O)N[C@@H](CC(C)C)C(=O)N[C@H](C(=O)N[C@@H](CCC(N)=O)C(=O)N[C@H](C(=O)N[C@@H](CCCCN)C(=O)N[C@H](C(=O)N[C@H](C(=O)N[C@@H](CCCCNC(=O)COCCOCCNC(=O)COCCOCCNC(=O)CC[C@H](NC(=O)CCCCCCCCCCCCCCCCC(=O)O)C(=O)O)C(=O)O)[C@@H](C)O)[C@@H](C)CC)[C@@H](C)O)[C@@H](C)CC [Compound 28] (H-H[Aib]DGTFISDYSTILDALAARDFINWLIQTKITK([AEEA-AEEA-γGlu-C18 diacid])-OH; N-terminus assumed)	> 100	0.96	1.14	12.0	24.8	–	–	–	–	–
–	–	–	–	–	–	–	CC[C@H](C)[C@H](NC(=O)[C@H](Cc1ccccc1)NC(=O)[C@H](CC(=O)O)NC(=O)[C@H](CCCNC(=N)N)NC(=O)[C@H](C)NC(=O)[C@H](C)NC(=O)[C@H](CC(C)C)NC(=O)[C@H](CCCCNC(=O)COCCOCCNC(=O)COCCOCCNC(=O)CC[C@H](NC(=O)CCCCCCCCCCCCCCCCC(=O)O)C(=O)O)NC(=O)[C@H](CC(=O)O)NC(=O)[C@H](CC(C)C)NC(=O)[C@@H](NC(=O)[C@@H](NC(=O)[C@H](CO)NC(=O)[C@H](Cc1ccc(O)cc1)NC(=O)[C@H](CC(=O)O)NC(=O)[C@H](CO)NC(=O)[C@@H](NC(=O)[C@H](Cc1ccccc1)NC(=O)[C@@H](NC(=O)CNC(=O)[C@H](CC(=O)O)NC(=O)[C@H](C)NC(=O)[C@@H](N)Cc1c[nH]cn1)[C@@H](C)O)[C@@H](C)CC)[C@@H](C)O)[C@@H](C)CC)C(=O)N[C@@H](CC(N)=O)C(=O)N[C@@H](Cc1c[nH]c2ccccc12)C(=O)N[C@@H](CC(C)C)C(=O)N[C@H](C(=O)N[C@@H](CCC(N)=O)C(=O)N[C@H](C(=O)N[C@@H](CCCCN)C(=O)NCC(=O)N[C@@H](CCCCN)C(=O)N[C@@H](CCCCN)C(=O)O)[C@@H](C)O)[C@@H](C)CC [Compound 30]	> 100	7.3	8.6	22.7	46.8	98	73	93	21.0	57
